Source: patent US7115612B2, “Arylsulfonamides as antiviral agents” (Bayer Aktiengesellschaft, priority 2001, dated 2006)

Tests used:
[1] = Cytotoxicity on 3T3 cells in the anti-MCMV cytopathogenicity test; assay type: cell-based; conditions: mouse, 3T3 mouse cells, 5 days incubation
Method: (§1) The test compounds were employed as 50 millimolar (mM) solutions in dimethyl sulphoxide (DMSO). Ganciclovir, foscarnet and cidofovir served as reference compounds. Following the addition of in each case 2 μl of the 50, 5, 0.5 and 0.05 mM DMSO stock solutions to in each case 98μ of cell culture medium in row 2 A-H, in duplicate determinations, 1:2 dilutions with in each case 50 μl of medium were prepared up to row 11 of the 96-well plate. The wells in rows 1 and 12 each contained 50 μl of medium. 150 μl of a suspension of 1×10^4 cells (human lung fibroblasts [HELF]) (row 1=cell control) or, in rows 2–12, a mixture of HCMV-infected and non-infected HELF cells (M.O.I.=0.001–0.002), i.e. 1–2 infected cells per 1000 non-infected cells, were then pipetted into each of the wells. Row 12 (without substance) served as virus control. The final test concentrations were 250–0.0005 μM. The plates were incubated at 37° C./5% CO2 for 6 days, i.e. until all cells in the virus controls had been infected (100% cytopathogenic effect [CPE]). The wells were then fixed and stained by adding a mixture of Formalin and Giemsa Stain (30 minutes), washed with doubly distilled water and dried in a drying cabinet at 50° C. The plates were then evaluated visually using an overhead microscope (plaque multiplier from Technomara).
CC50 (HELF)=substance concentration in μM at which, compared to the untreated cell control, no visible cytostatic effects on the cells were noticeable;
(§2) Compared to the process described above for HCMV, the anti-MCMV test was carried out with the following changes: a cell-free virus suspension was mixed with a concentrated cell suspension (3T3 mouse cells) and incubated for 15 minutes for adsorption of the viruses, and the suspension was then diluted with medium to 1.3×10^5 cells/ml with a final multiplicity of infection (M.O.I.) of from 0.05–0.1, and in each case 150 μl were dispensed into the wells. The incubation time was 5 days.

HCMV = assay: Anti-HCMV cytopathogenicity test; assay type: cell-based, human cytomegalovirus; conditions: for EC50: Human betaherpesvirus 5, 144 h, inhibition of CPE by 50% in HCMV-infected HELF cells, M.O.I. 0.001–0.002, 6 days; for SI HCMV: selectivity index = CC50 (HELF)/EC50 (HCMV)
Method: (§3) Anti-HCMV (Anti-Human Cytomegalovirus) and anti-MCMV (Anti-Murine Cytomegalovirus) cytopathogenicity tests: The test compounds were employed as 50 millimolar (mM) solutions in dimethyl sulphoxide (DMSO). Ganciclovir, foscarnet and cidofovir served as reference compounds. Following the addition of in each case 2 μl of the 50, 5, 0.5 and 0.05 mM DMSO stock solutions to in each case 98μ of cell culture medium in row […], in duplicate determinations, 1:2 dilutions with in each case 50 μl of medium were prepared up to row 11 of the 96-well plate. The wells in rows 1 and 12 each contained 50 μl of medium. 150 μl of a suspension of 1×10^4 cells (human lung fibroblasts [HELF]) (row 1=cell control) or, in rows 2-12, a mixture of HCMV-infected and non-infected HELF cells (M.O.I.=0.001-0.002), i.e. 1-2 infected cells per 1000 non-infected cells, were then pipetted into each of the wells. Row 12 (without substance) served as virus control. The final test concentrations were 250-0.0005 μM. The plates were incubated at 37° C./5% CO2 for 6 days, i.e. until all cells in the virus controls had been infected (100% cytopathogenic effect [CPE]). The wells were then fixed and stained by adding a mixture of Formalin and Giemsa Stain (30 minutes), washed with doubly distilled water and dried in a drying cabinet at 50° C. The plates were then evaluated visually using an overhead microscope (plaque multiplier from Technomara). From the test plates, the following data were determined: EC50 (HCMV)=substance concentration in μM which inhibits the CPE (cytopathic effect) by 50% compared to the untreated virus control; SI (selectivity index)=CC50 (HELF)/EC50 (HCMV).

MCMV = assay: Anti-MCMV cytopathogenicity test; assay type: cell-based, murine cytomegalovirus; conditions: for EC50: Murid betaherpesvirus 1, 120 h, MCMV-infected 3T3 mouse cells, M.O.I. 0.05–0.1, 5 days; for SI MCMV: selectivity index, 3T3 CC50 / MCMV EC50
Method: Anti-HCMV (Anti-Human Cytomegalovirus) and anti-MCMV (Anti-Murine Cytomegalovirus) cytopathogenicity tests:
as §1, §2

[2] = Cytotoxicity on HELF cells in the anti-HCMV cytopathogenicity test; assay type: cell-based; conditions: human lung fibroblasts (HELF cells), 6 days incubation, visual evaluation
Method: as §3, with “The” for “Anti-HCMV (Anti-Human Cytomegalovirus) and anti-MCMV (Anti-Murine Cytomegalovirus) cytopathogenicity tests: The”, “CC50 (HELF)=substance” for “EC50 (HCMV)=substance”, “at which,” for “which inhibits the CPE (cytopathic effect) by 50%”, “cell control, no visible cytostatic effects on the cells were noticeable;” for “virus control; SI (selectivity index)=CC50 (HELF)/EC50 (HCMV).”

Row | Structure (SMILES) | EC50 (HCMV) | EC50 (MCMV) | CC50 at 5 days [1] | SI HCMV (HCMV) | SI MCMV (MCMV) | CC50 at 6 days [2]
1 | CN(C)c1cccc(-c2nc(-c3ccc(S(=O)(=O)Nc4cccc(NC(=O)C5(C)CC5)c4)cc3)no2)c1 [Example 2, N-(3-{[(4-{5-[3-(Dimethylamino)phenyl]-1,2,4-oxadiazol-3-yl}phenyl)sulphonyl]-amino}phenyl)-1-methylcyclopropanecarboxamide] | 0.05 µM | 0.045 µM | 0.9 µM | <320 | 20 | < 16 µM
2 | CC1(C(=O)Nc2cccc(NS(=O)(=O)c3ccc(-c4noc(-c5csc(N)n5)n4)cc3)c2)CC1 [Example 4] | 0.01 µM | 0.015 µM | 11 µM | >6300 | 733 | > 63 µM
3 | Cc1cccc(-c2nc(-c3ccc(S(=O)(=O)Nc4cccc(NC(=O)C5(C)CC5)c4)cc3)no2)n1 [Example 5, 1-Methyl-N-{3-[({4-[5-(6-methyl-2-pyridinyl)-1,2,4-oxadiazol-3-yl]phenyl}-sulphonyl)amino]phenyl}cyclopropanecarboxamide] | 0.016 µM | 0.014 µM | > 31 µM | >1000 | >2214 | > 16 µM
4 | Cc1cc(-c2nc(-c3ccc(S(=O)(=O)Nc4cccc(NC(=O)C5(C)CC5)c4)cc3)no2)[nH]n1 [Example 6, 1-Methyl-N-{3-[({4-[5-(3-methyl-1H-pyrazol-5-yl)-1,2,4-oxadiazol-3-yl]phenyl}-sulphonyl)amino]phenyl}cyclopropanecarboxamide] | 0.02 µM | 0.041 µM | 2.9 µM | 2053 | 71 | 39 µM
5 | CC1(C(=O)Nc2cccc(NS(=O)(=O)c3ccc(-c4noc(-c5cscn5)n4)cc3)c2)CC1 [Example 7, 1-Methyl-N-{3-[({4-[5-(1,3-thiazol-4-yl)-1,2,4-oxadiazol-3-yl]phenyl}sulphonyl)-amino]phenyl}cyclopropanecarboxamide] | 0.025 µM | 0.025 µM | 12 µM | 1880 | 480 | 47 µM
6 | Cc1cc(-c2nc(-c3ccc(S(=O)(=O)Nc4cccc(NC(=O)C5(C)CC5)c4)cc3)no2)nn1C [Example 8, N-{3-[({4-[5-(1,5-Dimethyl-1H-pyrazol-3-yl)-1,2,4-oxadiazol-3-yl]phenyl}-sulphonyl)amino]phenyl}-1-methylcyclopropanecarboxamide] | 0.02 µM | 0.024 µM | > 3.9 µM | >110 | >163 | > 2.2 µM
7 | CC1(C(=O)Nc2cccc(NS(=O)(=O)c3ccc(-c4noc(-c5nccc6ccccc56)n4)cc3)c2)CC1 [Example 10, N-{3-[({4-[5-(1-Isoquinolinyl)-1,2,4-oxadiazol-3-yl]phenyl}sulphonyl)-amino]phenyl}-1-methylcyclopropanecarboxamide] | 0.008 µM | 0.007 µM | > 7.8 µM | >488 | >975 | > 3.9 µM
8 | Cc1nc(-c2nc(-c3ccc(S(=O)(=O)Nc4cccc(NC(=O)C5(C)CC5)c4)cc3)no2)cs1 [Example 11, 1-Methyl-N-{3-[({4-[5-(2-methyl-1,3-thiazol-4-yl)-1,2,4-oxadiazol-3-yl]phenyl}-sulphonyl)amino]phenyl}cyclopropanecarboxamide] | 0.015 µM | 0.002 µM | > 12 µM | >1040 | >5850 | > 16 µM

Continued, in another order:

Row | EC50 (HCMV) | EC50 (MCMV) | Structure (SMILES) | CC50 at 5 days [1] | SI HCMV (HCMV) | SI MCMV (MCMV) | CC50 at 6 days [2]
9 | 0.058 µM | 0.058 µM | CC1(C(=O)Nc2cccc(NS(=O)(=O)c3ccc(-c4noc(-c5csc(CN)n5)n4)cc3)c2)CC1 [Example 12, N-(3-{[(4-{5-[2-(Aminomethyl)-1,3-thiazol-4-yl]-1,2,4-oxadiazol-3-yl}phenyl)-sulphonyl]amino}phenyl)-1-methylcyclopropanecarboxamide] | 7 µM | 241 | 121 | 14 µM
10 | 0.04 µM | 0.03 µM | CC(C)(CF)C(=O)Nc1ccc(NS(=O)(=O)c2cccc(-c3noc(-c4ccccc4)n3)c2)cc1 [Example 13, 3-Fluoro-2,2-dimethyl-N-[4-({[3-(5-phenyl-1,2,4-oxadiazol-3-yl)phenyl]sulphonyl}-amino)phenyl]propanamide] | < 16 µM | <200 | <533 | < 8 µM
11 | 0.02 µM |  | CC1(C(=O)Nc2ccc(NS(=O)(=O)c3cccc(-c4nnc(-c5ccccn5)s4)c3)cc2)CC1 [Example 131, 1-Methyl-N-{4-[({3-[5-(2-pyridinyl)-1,3,4-thiadiazol-2-yl]phenyl}sulphonyl)amino]phenyl}cyclopropanecarboxamide] |  | >1555 |  | > 28 µM
12 | 0.006 µM | 0.003 µM | CC(=O)Nc1cccc(-c2nc(-c3ccc(S(=O)(=O)Nc4cccc(NC(=O)C5(C)CC5)c4)cc3)no2)n1 [Example 132, N-(3-{[(4-{5-[6-(Acetylamino)-2-pyridinyl]-1,2,4-oxadiazol-3-yl}phenyl)sulphonyl]-amino}phenyl)-1-methylcyclopropanecarboxamide] | 2.3 µM | 7833 | 767 | 47 µM
13 | 0.009 µM | 0.0047 µM | CC1(C(=O)Nc2cccc(NS(=O)(=O)c3ccc(-c4noc(-c5cccc(N)n5)n4)cc3)c2)CC1 [Example 134, N-{3-[({4-[5-(6-Amino-2-pyridinyl)-1,2,4-oxadiazol-3-yl]phenyl}sulphonyl)amino]-phenyl}-1-methylcyclopropanecarboxamide] | 8 µM | 10444 | 1617 | 94 µM
